Here are results for three compounds from patent US9907309B2 (priority 2010, dated 2018).

The structures appear in SMILES notation. Where two headings read alike, the source gives them in different places.

Common to all, as to settings: solo, growth at 405 nm 7 days after inoculation
In one experiment the test system is Phytophtora infestans. Type of experiment: cell-based.
The next experiment deals with Septoria tritici.
For the next experiment, the system named is Alternaria solani.

For the compound `C[C@]1(COC(=O)C2CC2)[C@@H]2C[C@H](O)[C@@]3(C)Oc4cc(-c5cccnc5)oc(=O)c4[C@H](O)[C@@H]3[C@@]2(C)CC[C@@H]1OC(=O)C1CC1` [Compound I, [(3S,4R,4aR,6S,6aS,12R,12aS,12bS)-3-(cyclopropanecarbonyloxy)-6,12-dihydroxy-4,6a,12b-trimethyl-11-oxo-9-(pyridin-3-yl)-1,2,3,4,4a,5,6,6a,12a,12b-decahydro-11H,12H-benzo[f]pyrano[4,3-b]chromen-4-yl]methyl cyclopropanecarboxylate], the Observed efficacy is listed as 6% with Phytophtora infestans (4 ppm), 0% in the experiment with Septoria tritici (4 ppm), 0% in the experiment with Septoria tritici (63 ppm) and 0% in the experiment with Alternaria solani (1 ppm).

On to `Cn1cc(C(=O)Nc2ccccc2-c2cc(F)c(F)c(F)c2)c(C(F)F)n1` [Fluxapyroxad, fluxapyroxad], for which the Observed efficacy in the experiment on Septoria tritici (0.063 ppm) is recorded as 54%.

For `COC(=O)N(OC)c1ccccc1COc1ccn(-c2ccc(Cl)cc2)n1` [Pyraclostrobin, pyraclostrobin], the Observed efficacy amounted to 28% in the experiment with Phytophtora infestans (0.063 ppm), 63% in the experiment with Septoria tritici (0.004 ppm) and 16% in the experiment with Alternaria solani (0.001 ppm).
